Assay results from patent US10098827B2 (L'OREAL, priority 2014, dated 2018).
pIC50: −log10 of the molar value.

Molecular target: T1, human leukocyte elastase (HLE) (Homo sapiens, UniProt P08246)
T1 construct: CEREP (contract assay)
T1 sequence (P08246 30-267): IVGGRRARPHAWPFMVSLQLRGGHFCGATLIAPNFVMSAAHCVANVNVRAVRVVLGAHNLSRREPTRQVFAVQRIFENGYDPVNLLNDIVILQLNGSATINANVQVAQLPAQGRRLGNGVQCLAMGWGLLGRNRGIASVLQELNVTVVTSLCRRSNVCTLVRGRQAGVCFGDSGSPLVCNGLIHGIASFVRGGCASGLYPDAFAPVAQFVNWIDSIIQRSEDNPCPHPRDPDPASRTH
Assay: Human Elastase Assay test (CEREP catalog), photometry
Type: biochemical
Settings: for inhibition at 1000 µM: compound at 1 mM, reference substrate MeOSAAPV-pNa at 0.1 mM, photometry, read-out: Elastase inhibition activity (conc 1 mM); for pIC50: human elastase, read-out: IC50 (concentration that produces 50% inhibition of the human elastase activity)
Procedure: The molecules have been evaluated in vitro on a Human Elastase Assay test, available in the CEREP catalog.
The results are expressed as a percentage of activity versus a specific control (activity measured with compounds of the invention/control activity without the compound of the invention)×100.
The control is the enzymatic activity of human leukocyte elastase (HLE) on a reference substrate (MeOSAAPV-pNa at 0.1 mM).
The detection method used is photometry.
This method is described in the literature: Adeyemi et al 1990, J. Pharm. Pharmacol. 42, 487-490.
The concentration that produces 50% inhibition of the human elastase activity (IC50) was measured.

inhibition at 1000 µM [%]	pIC50	SMILES	effectiveness for inhibiting elastase activity compared with the compound of the prior art (comparison in words)
98	–	CC(=O)N(c1ccc(C(=O)O)c(C(=O)O)c1)[C@H](C(=O)NCC(=O)O)C(C)C [Compound 2, N-ACETYL-N-(3,4-DICARBOXYPHENYL)VALYLGLYCINE]	–
65	–	COC(=O)c1cc(C(=O)OC)cc(N(C(C)=O)C(C(=O)NCC(=O)O)C(C)C)c1 (centres unmarked) [Compound 6, N-ACETYL-N-[3,5-BIS(METHOXYCARBOXY)PHENYL]VALYLGLYCINE]	–
–	2.20	CC(=O)N(c1cccc(C(F)(F)F)c1)C(C(=O)NCC(=O)O)C(C)C (centres unmarked) [Z, reference compound]	–

More lines, now with the values behind:

SMILES	inhibition at 1000 µM [%]	pIC50	effectiveness for inhibiting elastase activity compared with the compound of the prior art (comparison in words)
CC(=O)N(c1ccc(C(=O)O)c(O)c1)[C@H](C(=O)NCC(=O)O)C(C)C [Compound 1, N-ACETYL-N-(4-CARBOXY-3-HYDROXYPHENYL)VALYLGLYCINE]	98	–	–
CC(=O)N(c1cc(C(=O)O)cc(C(=O)O)c1)[C@H](C(=O)NCC(=O)O)C(C)C [Compound 3, N-ACETYL-N-(3,5-DICARBOXYPHENYL)VALYLGLYCINE]	98	–	–
CC(=O)N(c1cccc(C#N)c1)C(C(=O)NCC(=O)O)C(C)C (centres unmarked) [Compound 4]	35	2.25	clearly more effective than the compound of the prior art
CCOC(=O)c1cc(N(C(C)=O)[C@H](C(=O)NCC(=O)O)C(C)C)ccc1O [Compound 5, N-ACETYL-N-[3-(ETHOXYCARBONYL)-4-HYDROXYPHENYL]VALYLGLYCINE]	62	–	–
CC(=O)N(c1cccc(O)c1)[C@H](C(=O)NCC(=O)O)C(C)C [Compound 7, N-ACETYL-N-(3-HYDROXYPHENYL)VALYLGLYCINE]	62	–	–
CC(=O)N(c1ccc(C(=O)O)cc1)C(C(=O)NCC(=O)O)C(C)C (centres unmarked) [Compound 8]	88	–	–
